Consider 3 compounds from US8901086B2, “Compositions including triciribine and methods of use thereof” (University of South Florida, priority 2004, dated 2014).

One assay relates to MCF7 cells. Kind of assay: Western blot of Akt pathway after mTOR inhibitor. The class given is cell-based. Particulars: 24 hour time course. Here is the method:
The upper panels (A) show western blots of OV3 cell lysates following the treatment with 1 nM mTOR inhibitor rapamycin for the time indicated. Membranes were probed with antibodies specific to phosphorylated isoforms and to the total protein for comparison of Akt, p70S6K and FKHRL 1. The lower panels (B) illustrate western blots of MCF7 cell lysates following treatment with the mTOR inhibitor RAD001 for the time indicated. Membranes were probed with antibodies specific to phosphorylated isoforms and to the total protein for comparison of Akt and p70S6K.
OV3 and MCF7 cells were treated with the mTOR inhibitors rapamycin and RAD001, respectively, over a 24 hour time course. Lysyates were resolved by SDS-PAGE and transferred to a membrane for western blotting. Membranes were probed with antibodies to phospho-Akt, total Akt, phospho-p70S6K, and total p70S6K. Membranes with lysates derived from OV3 cells were additionally probed with antibodies to phospho-FKHRL 1 and total FKHRL 1.
Background: A western blot detects proteins with antibodies after separation by electrophoresis.

In the next assay the test system is Akt. It is filed as cell-based, human. Particulars: 2 hours; trastuzumab 2 μg/ml, triciribine 2.5 μM, RAD001 0.4 nM.
The test system of the next assay is p70S6K. The class given is cell-based, human. Conditions: 2 hours; trastuzumab 2 μg/ml, RAD001 0.4 nM.
The target in the next assay is PKCα (Homo sapiens, UniProt P17252). Nature of the assay: PKCα activity, kinase assay and immunoblot. It is filed as cell-based.
The test system of assay [1] is H929 cells and U266 cells. Kind of assay: Survival of multiple myeloma derived cells. The class given is cell-based.

Description for PKCα: The immunoblots were detected with indicated antibodies. […] The kinase activity was quantified.
Protocol for p70S6K: Total cell lysates were collected, separated by SDS-PAGE and immunoblotted as indicated. […] The experiments were repeated at least twice to insure that results were reproducible.
SDS-PAGE and Immunoblot Analysis. Cells transfected with PTEN AS/NS oligonucleotides were treated as indicated.
Phosphorylation of Akt on Thr308 and Ser473 was analyzed as an indicator of Akt activity and mTOR activity was assessed by the phosphorylation of p70S6K (70-kDa ribosomal protein S6 kinase), an mTOR target.

For `CO[C@H]1C[C@@H]2CC[C@@H](C)[C@@](O)(O2)C(=O)C(=O)N2CCCC[C@H]2C(=O)O[C@H]([C@H](C)C[C@@H]2CC[C@@H](OCCO)[C@H](OC)C2)CC(=O)[C@H](C)/C=C(\C)[C@@H](O)[C@@H](OC)C(=O)[C@H](C)C[C@H](C)/C=C/C=C/C=C/1C` [RAD001, everolimus], the “activation of Akt pathway” value in the assay on MCF7 cells was “rapid activation of Akt pathway”. Also, in the assay with Akt, the “phosphorylation of Akt on Thr308 and Ser473” value was “feedback activation of Akt”. The “phosphorylation of p70S6K” value in the assay with p70S6K is “dramatically blocked”. For the compound `Cn1cc(C2=C(c3cn(CCCSC(=N)N)c4ccccc34)C(=O)NC2=O)c2ccccc21` [Ro 31-8220], the “kinase activity of PKCα” value at PKCα was “inhibited”.

Turning to `CC(C)C[C@H](NC(=O)[C@H](Cc1ccccc1)NC(=O)c1cnccn1)B(O)O` [bortezomib], the “effect of API-2 on survival of myeloma cells” value in assay [1] is “synergistically enhances”.
